pIC50: −log10 of the molar value.
Columns and labels:
Assay type in all cases: cell-based
MCF-7 cells = assay: Inhibition of cell proliferation of MCF-7 cells (CCK-8, 9 days); settings: treated for 9 days, CCK-8 kit (Table 6)
Method in brief: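 MCF-7 cells seeded at 800 cells/well in DMEM with 10% FBS, exposed to a range of compound concentrations for 9 days at 37°C, 5% CO2. Viability read by CCK-8; IC50 derived for proliferation inhibition.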

ERα [1] = target: T1, ERα (Homo sapiens, UniProt P03372); assay: Degradation of ERα in T-47D cells (immunoblotting, 4 h); set-up: host or cells: T-47D
T1 sequence (P03372 1-595): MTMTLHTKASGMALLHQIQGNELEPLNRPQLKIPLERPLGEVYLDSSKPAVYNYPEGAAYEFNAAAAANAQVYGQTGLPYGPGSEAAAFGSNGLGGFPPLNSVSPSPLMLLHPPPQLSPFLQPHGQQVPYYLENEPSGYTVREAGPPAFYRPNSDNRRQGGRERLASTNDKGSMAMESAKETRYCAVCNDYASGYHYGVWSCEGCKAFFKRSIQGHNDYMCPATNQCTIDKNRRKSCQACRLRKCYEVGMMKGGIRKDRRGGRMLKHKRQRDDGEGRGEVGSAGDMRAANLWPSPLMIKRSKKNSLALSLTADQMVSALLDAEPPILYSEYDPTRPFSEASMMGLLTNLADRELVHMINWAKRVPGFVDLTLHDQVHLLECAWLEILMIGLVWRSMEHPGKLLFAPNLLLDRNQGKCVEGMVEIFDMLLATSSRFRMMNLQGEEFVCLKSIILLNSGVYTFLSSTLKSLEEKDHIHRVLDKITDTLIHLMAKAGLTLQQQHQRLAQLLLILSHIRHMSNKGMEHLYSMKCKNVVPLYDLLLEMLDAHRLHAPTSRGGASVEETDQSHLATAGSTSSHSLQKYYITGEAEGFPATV
Method in brief: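 T-47D cells were treated with compound (final 0.15-1000 nM, DMSO) for 4 h at 37°C, 5% CO2. Cells were lysed in RIPA buffer with protease inhibitor, and ERα protein in the cleared lysate was measured by immunoblotting.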

ERα [2] = target: T1, ERα; assay: Degradation of ERα in MCF-7 cells (immunoblotting, 4 h)
Method in brief: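 MCF-7 cells treated 4 h at 37°C with compounds at 0.15-1000nM final. ERα in lysates measured by immunoblot, with band grayscale normalized to an internal reference protein. Degradation rate calculated against DMSO-treated control.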

T-47D cells = assay: Inhibition of cell proliferation in T-47D cells (CCK-8, 6 days); settings: 6 days of treatment, Table 3
Method in brief: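 T-47D cells at 3,000 cells/well in RPMI 1640 with 10% FBS were exposed to a concentration series of PROTAC compounds for 6 days at 37 °C, 5% CO2. Viability was read by CCK-8, and IC50 values were derived for proliferation inhibition.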

Compound | pIC50 (MCF-7 cells) | Degradation rate (%) of ERα in T-47D cells (ERα [1]; 1nM compound) | Degradation rate (%) of ERα in T-47D cells (ERα [1]; 10nM compound) | Degradation rate (%) of ERα in MCF-7 cells (ERα [2]; 1nM compound) | Degradation rate (%) of ERα in MCF-7 cells (ERα [2]; 10nM compound) | pIC50 (T-47D cells)
O=C1CCC(N2C(=O)c3ccc4c(c3C2=O)OCC42CCN(C3CCN(C(=O)C4CCN(c5ccc([C@@H]6c7ccc(O)cc7CC[C@@H]6c6ccccc6)cc5)CC4)CC3)CC2)C(=O)N1 (stereo partly drawn) [H27] | 6.10 | 36% | 78% | 11% | 46% | 8.33
C[C@@H]1Cc2c([nH]c3ccccc23)[C@@H](c2c(F)cc(N3CCC4(CCN(CC(=O)N5CCC6(CC5)COc5c6ccc6c5CN(C5CCC(=O)NC5=O)C6=O)CC4)CC3)cc2F)N1CC(F)F (stereo partly drawn) [A112] | 7.23 | 40% | 78% | 15% | 63% | 8.70
C[C@@H]1Cc2c([nH]c3ccccc23)[C@@H](c2c(F)cc(N3CCN(C[C@H]4CC[C@H](C(=O)N5CCC6(CC5)COc5c6ccc6c5CN(C5CCC(=O)NC5=O)C6=O)CC4)CC3)cc2F)N1CC(F)F (stereo partly drawn) [A114] | 7.99 | 48% | 73% | 46% | 62% | 8.93
C[C@@H]1CN(C(=O)C2CCN(c3cc(F)c(C4c5ccc6[nH]ncc6c5C[C@@H](C)N4CC(F)F)c(F)c3)CC2)CCC1N1CCC2(CC1)COc1c2ccc2c1CN(C1CCC(=O)NC1=O)C2=O (stereo partly drawn) [B40] | 7.34 | 64% | 68% | 54% | 61% | 9.00
CC1CN(C2CCN(c3ccc([C@@H]4c5ccc(O)cc5CC[C@@H]4c4ccccc4)cc3)CC2)CCC1N1CCC2(CC1)COc1c2ccc2c1CN(C1CCC(=O)NC1=O)C2=O (stereo partly drawn) [K19] | 7.31 | 21% | 56% | 32% | 63% | 8.27
O=C1CCC(N2Cc3c(ccc4c3OCC43CCN(CC4CCN(CC5CCN(c6ccc([C@@H]7c8ccc(O)cc8CC[C@@H]7c7ccccc7)cc6)CC5)CC4)CC3)C2=O)C(=O)N1 (stereo partly drawn) [A102] | 6.97 | 16% | 51% | 36% | 73% | 7.70
COC(=O)[C@@H]1C[C@H](N2CCC3(CC2)COc2c3ccc3c2CN(C2CCC(=O)NC2=O)C3=O)CCN1C1CC2(CCN(c3ccc([C@@H]4c5ccc(O)cc5CC[C@@H]4c4ccccc4)cc3)CC2)C1 (stereo partly drawn) [H31] | 7.36 | 55% | 85% | 46% | 83% | 8.74
O=C1CCC(N2Cc3c(ccc4c3OCC43CCN(CC4(F)CCN(C(=O)C5CCN(c6ccc([C@@H]7c8ccc(O)cc8CC[C@@H]7c7ccccc7)cc6)CC5)CC4)CC3)C2=O)C(=O)N1 (stereo partly drawn) [A105] | 4.58 | 38% | 73% | 7% | 43% | 8.89
O=C1CCC(N2Cc3cc4c(cc3C2=O)CCC2(CN(C(=O)CN3CCC5(CC3)CCN(c3ccc([C@@H]6c7ccc(O)cc7CC[C@@H]6c6ccccc6)cc3)CC5)C2)O4)C(=O)N1 (stereo partly drawn) [A69] | 7.04 | 19% | 67% | 21% | 35% | 8.45
C[C@@H]1Cc2c(ccc3[nH]ncc23)C(c2ccc(N3CCC(C(=O)N4CCC(N5CCC6(CC5)COc5c6ccc6c5CN(C5CCC(=O)NC5=O)C6=O)CC4)CC3)cn2)N1CC(F)(F)F (stereo partly drawn) [B42] | 4.04 | 3% | 13% | 17% | 26% | 5.61
COC(=O)[C@@H]1C[C@H](N2CCC3(CC2)COc2c3ccc3c2CN(C2CCC(=O)NC2=O)C3=O)CCN1C1CCN(c2ccc([C@@H]3c4ccc(O)cc4CC[C@@H]3c3ccccc3)cc2)CC1 (stereo partly drawn) [H32] | 5.40 | 52% | 77% | 35% | 58% | 8.84
O=C1CCC(N2C(=O)c3cc4c(cc3C2=O)OCC2(CCN(CC3CCC5(CC3)CCN(c3ccc([C@@H]6c7ccc(O)cc7CC[C@@H]6c6ccccc6)cc3)CC5)CC2)C4)C(=O)N1 (stereo partly drawn) [A42] | 7.42 | 41% | 30% | -49% | -36% | 7.22
O=C1CCC(N2Cc3c(ccc4c3OCC43CCN(C4CCC5(CC4)CCN(c4ccc([C@@H]6c7ccc(O)cc7CC[C@@H]6c6ccccc6)cc4)CC5)CC3)C2=O)C(=O)N1 (stereo partly drawn) [L15] | 7.72 | 23% | 71% | 18% | 57% | 8.10
O=C1CCC(N2Cc3cc4c(cc3C2=O)CCC2(CN(C3CCC(N5CCN(c6ccc([C@@H]7c8ccc(O)cc8CC[C@@H]7c7ccccc7)cc6)CC5)CC3)C2)O4)C(=O)N1 (stereo partly drawn) [B15] | 7.32 | -4% | 3% | -13% | -18% | 7.50
O=C1CCC(N2Cc3cc4c(cc3C2=O)CCC2(CN(C(=O)C3CCC5(CC3)CN(c3ccc([C@@H]6c7ccc(O)cc7CC[C@@H]6c6ccccc6)cc3)C5)C2)O4)C(=O)N1 (stereo partly drawn) [A46] | 5.90 | 7% | 33% | -22% | -26% | 7.97
C[C@@H]1Cc2cc(O)ccc2[C@@H](c2c(F)cc(N3CC4(CCC(N5CCC6(CC5)COc5c6ccc6c5CN(C5CCC(=O)NC5=O)C6=O)CC4)C3)cc2F)N1CC(F)(F)F (stereo partly drawn) [I4] | 6.92 | 41% | 62% | 39% | 54% | 7.89
O=C1CCC(N2Cc3c(ccc4c3OCC43CCN(C[C@H]4CC[C@H](C#Cc5ccc([C@@H]6c7ccc(O)cc7CC[C@@H]6c6ccccc6)cc5)CC4)CC3)C2=O)C(=O)N1 (stereo partly drawn) [A115] | 7.22 | 17% | 43% | 0% | 16% | 7.96

— patent EP4656642A1, “ESTROGEN RECEPTOR PROTEOLYSIS TARGETING CHIMERA COMPOUND AND USE THEREOF” (GAN & LEE PHARM CO., LTD, priority 2023, dated 2024)
